Laboratory results as given in PubChem BioAssay (NCI).
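Interpolation was linear, between the two tested concentrations surrounding the appropriate level; five concentrations were tested over 48 hours in 96-well plates. At the TGI there is no net growth.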

What was measured:
Experiment in all cases: NCI anticancer screen, dose series, 48 h
SK-MEL-28 melanoma = test system: SK-MEL-28 melanoma
DLD-1 colon = test system: DLD-1 colon
U251 CNS = test system: U251 CNS
M14 melanoma = test system: M14 melanoma
OVCAR-3 ovarian = test system: OVCAR-3 ovarian
UACC-62 melanoma = test system: UACC-62 melanoma
LXFL 529 NSCLC = test system: LXFL 529 NSCLC
UO-31 renal = test system: UO-31 renal
RPMI-8226 leukemia = test system: RPMI-8226 leukemia
SK-MEL-5 melanoma = test system: SK-MEL-5 melanoma
SK-OV-3 ovarian = test system: SK-OV-3 ovarian
UACC-257 melanoma = test system: UACC-257 melanoma
LOX IMVI melanoma = test system: LOX IMVI melanoma
M19-MEL melanoma = test system: M19-MEL melanoma
HOP-18 NSCLC = test system: HOP-18 NSCLC
SK-MEL-2 melanoma = test system: SK-MEL-2 melanoma
TK-10 renal = test system: TK-10 renal
SNB-19 CNS = test system: SNB-19 CNS
RXF 393 renal = test system: RXF 393 renal
SNB-75 CNS = test system: SNB-75 CNS
DMS 114 small cell lung = test system: DMS 114 small cell lung
CCRF-CEM leukemia = test system: CCRF-CEM leukemia
HL-60(TB) leukemia = test system: HL-60(TB) leukemia
MOLT-4 leukemia = test system: MOLT-4 leukemia
OVCAR-5 ovarian = test system: OVCAR-5 ovarian
SF-295 CNS = test system: SF-295 CNS
KM20L2 colon = test system: KM20L2 colon
DMS 273 small cell lung = test system: DMS 273 small cell lung
HT29 colon = test system: HT29 colon
SNB-78 CNS = test system: SNB-78 CNS
HCT-116 colon = test system: HCT-116 colon
EKVX NSCLC = test system: EKVX NSCLC
SF-268 CNS = test system: SF-268 CNS
KM12 colon = test system: KM12 colon
K-562 leukemia = test system: K-562 leukemia
HOP-62 NSCLC = test system: HOP-62 NSCLC
XF 498 CNS = test system: XF 498 CNS
OVCAR-4 ovarian = test system: OVCAR-4 ovarian
786-0 renal = test system: 786-0 renal
HOP-92 NSCLC = test system: HOP-92 NSCLC
COLO 205 colon = test system: COLO 205 colon
CAKI-1 renal = test system: CAKI-1 renal
NCI-H522 lung = test system: NCI-H522 lung
A549 NSCLC = test system: A549 NSCLC
IGROV1 ovarian = test system: IGROV1 ovarian
ACHN renal = test system: ACHN renal
SN12C renal = test system: SN12C renal
NCI-H460 lung = test system: NCI-H460 lung
OVCAR-8 ovarian = test system: OVCAR-8 ovarian
SR leukemia = test system: SR leukemia
SW-620 colon = test system: SW-620 colon
NCI-H226 lung = test system: NCI-H226 lung
SF-539 CNS = test system: SF-539 CNS
RXF-631 renal = test system: RXF-631 renal
HCC-2998 colon = test system: HCC-2998 colon
MALME-3M melanoma = test system: MALME-3M melanoma
NCI-H23 lung = test system: NCI-H23 lung

Q: For `C=C/C=C/NC(=O)OCc1ccccc1`, which TGI (SK-MEL-28 melanoma) is on record?
A: > 100 µM

Q: What about the TGI (DLD-1 colon) of the same compound?
A: > 100 µM

Q: And the TGI (U251 CNS)?
A: > 100 µM

Q: And the TGI (M14 melanoma)?
A: > 100 µM

Q: What about the TGI (OVCAR-3 ovarian) of the same compound?
A: > 100 µM

Q: And the TGI (UACC-62 melanoma)?
A: > 100 µM

Q: What about the TGI (LXFL 529 NSCLC) of the same compound?
A: > 100 µM

Q: What about the TGI (UO-31 renal) of the same compound?
A: > 100 µM

Q: And the TGI (RPMI-8226 leukemia)?
A: > 100 µM

Q: What about the TGI (SK-MEL-5 melanoma) of the same compound?
A: > 100 µM

Q: And the TGI (SK-OV-3 ovarian)?
A: > 100 µM

Q: And the TGI (UACC-257 melanoma)?
A: > 100 µM

Q: What about the TGI (LOX IMVI melanoma) of the same compound?
A: > 100 µM

Q: What about the TGI (M19-MEL melanoma) of the same compound?
A: > 100 µM

Q: And the TGI (HOP-18 NSCLC)?
A: > 100 µM

Q: And the TGI (SK-MEL-2 melanoma)?
A: > 100 µM

Q: What about the TGI (TK-10 renal) of the same compound?
A: > 100 µM

Q: And the TGI (SNB-19 CNS)?
A: > 100 µM

Q: What about the TGI (RXF 393 renal) of the same compound?
A: > 100 µM

Q: And the TGI (SNB-75 CNS)?
A: > 100 µM

Q: What about the TGI (DMS 114 small cell lung) of the same compound?
A: > 100 µM

Q: And the TGI (CCRF-CEM leukemia)?
A: > 100 µM

Q: And the TGI (HL-60(TB) leukemia)?
A: > 100 µM

Q: And the TGI (MOLT-4 leukemia)?
A: > 100 µM

Q: And the TGI (OVCAR-5 ovarian)?
A: > 100 µM

Q: What about the TGI (SF-295 CNS) of the same compound?
A: > 100 µM

Q: What about the TGI (KM20L2 colon) of the same compound?
A: > 100 µM

Q: And the TGI (DMS 273 small cell lung)?
A: > 100 µM

Q: What about the TGI (HT29 colon) of the same compound?
A: > 100 µM

Q: What about the TGI (SNB-78 CNS) of the same compound?
A: > 100 µM

Q: What about the TGI (HCT-116 colon) of the same compound?
A: > 100 µM

Q: And the TGI (EKVX NSCLC)?
A: > 100 µM

Q: What about the TGI (SF-268 CNS) of the same compound?
A: > 100 µM

Q: And the TGI (KM12 colon)?
A: > 100 µM

Q: And the TGI (K-562 leukemia)?
A: > 100 µM

Q: What about the TGI (HOP-62 NSCLC) of the same compound?
A: > 100 µM

Q: And the TGI (XF 498 CNS)?
A: > 100 µM

Q: And the TGI (OVCAR-4 ovarian)?
A: > 100 µM

Q: What about the TGI (786-0 renal) of the same compound?
A: > 100 µM

Q: And the TGI (HOP-92 NSCLC)?
A: > 100 µM

Q: What about the TGI (COLO 205 colon) of the same compound?
A: > 100 µM

Q: And the TGI (CAKI-1 renal)?
A: > 100 µM

Q: What about the TGI (NCI-H522 lung) of the same compound?
A: > 100 µM

Q: And the TGI (A549 NSCLC)?
A: > 100 µM

Q: What about the TGI (IGROV1 ovarian) of the same compound?
A: > 100 µM

Q: And the TGI (ACHN renal)?
A: > 100 µM

Q: And the TGI (SN12C renal)?
A: > 100 µM

Q: What about the TGI (NCI-H460 lung) of the same compound?
A: > 100 µM

Q: What about the TGI (OVCAR-8 ovarian) of the same compound?
A: > 100 µM

Q: And the TGI (SR leukemia)?
A: > 100 µM

Q: And the TGI (SW-620 colon)?
A: > 100 µM

Q: With `OC1(C23CC4CC(CC(C4)C2)C3)CSCC1(O)C12CC3CC(CC(C3)C1)C2` (stereo not given) as the compound, how does the TGI (SK-MEL-28 melanoma) read?
A: > 100 µM

Q: What about the TGI (DLD-1 colon) of the same compound?
A: > 100 µM

Q: What about the TGI (M14 melanoma) of the same compound?
A: > 100 µM

Q: What about the TGI (OVCAR-3 ovarian) of the same compound?
A: > 100 µM

Q: And the TGI (UACC-62 melanoma)?
A: > 100 µM

Q: What about the TGI (NCI-H226 lung) of the same compound?
A: > 100 µM

Q: What about the TGI (SF-539 CNS) of the same compound?
A: > 100 µM

Q: What about the TGI (LXFL 529 NSCLC) of the same compound?
A: > 100 µM

Q: What about the TGI (UO-31 renal) of the same compound?
A: > 100 µM

Q: What about the TGI (RPMI-8226 leukemia) of the same compound?
A: > 100 µM

Q: What about the TGI (SK-MEL-5 melanoma) of the same compound?
A: > 100 µM

Q: What about the TGI (RXF-631 renal) of the same compound?
A: > 100 µM

Q: What about the TGI (SK-OV-3 ovarian) of the same compound?
A: > 100 µM

Q: What about the TGI (UACC-257 melanoma) of the same compound?
A: > 100 µM

Q: What about the TGI (M19-MEL melanoma) of the same compound?
A: > 100 µM

Q: What about the TGI (SK-MEL-2 melanoma) of the same compound?
A: > 100 µM

Q: What about the TGI (TK-10 renal) of the same compound?
A: > 100 µM

Q: And the TGI (SNB-19 CNS)?
A: > 100 µM

Q: What about the TGI (SNB-75 CNS) of the same compound?
A: > 100 µM

Q: And the TGI (DMS 114 small cell lung)?
A: > 100 µM

Q: And the TGI (CCRF-CEM leukemia)?
A: > 10 µM

Q: And the TGI (HL-60(TB) leukemia)?
A: > 10 µM

Q: What about the TGI (MOLT-4 leukemia) of the same compound?
A: > 10 µM

Q: What about the TGI (SF-295 CNS) of the same compound?
A: > 100 µM

Q: What about the TGI (DMS 273 small cell lung) of the same compound?
A: > 100 µM

Q: And the TGI (HCC-2998 colon)?
A: > 100 µM

Q: What about the TGI (HT29 colon) of the same compound?
A: > 100 µM

Q: And the TGI (SNB-78 CNS)?
A: > 100 µM

Q: And the TGI (HCT-116 colon)?
A: > 100 µM

Q: And the TGI (EKVX NSCLC)?
A: > 100 µM

Q: And the TGI (SF-268 CNS)?
A: > 100 µM

Q: What about the TGI (MALME-3M melanoma) of the same compound?
A: > 100 µM

Q: And the TGI (KM12 colon)?
A: > 100 µM

Q: And the TGI (K-562 leukemia)?
A: > 100 µM

Q: And the TGI (HOP-62 NSCLC)?
A: > 100 µM

Q: And the TGI (XF 498 CNS)?
A: > 100 µM

Q: What about the TGI (OVCAR-4 ovarian) of the same compound?
A: > 100 µM

Q: What about the TGI (786-0 renal) of the same compound?
A: > 100 µM

Q: And the TGI (HOP-92 NSCLC)?
A: > 100 µM

Q: And the TGI (COLO 205 colon)?
A: > 100 µM

Q: What about the TGI (CAKI-1 renal) of the same compound?
A: > 100 µM

Q: And the TGI (NCI-H522 lung)?
A: > 100 µM

Q: What about the TGI (A549 NSCLC) of the same compound?
A: > 100 µM

Q: What about the TGI (IGROV1 ovarian) of the same compound?
A: > 100 µM

Q: What about the TGI (SN12C renal) of the same compound?
A: > 100 µM

Q: What about the TGI (NCI-H23 lung) of the same compound?
A: > 100 µM

Q: What about the TGI (OVCAR-8 ovarian) of the same compound?
A: > 100 µM

Q: And the TGI (SR leukemia)?
A: > 100 µM

Q: What about the TGI (SW-620 colon) of the same compound?
A: > 100 µM
